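Dose response: 5 concentrations. Exposure: 48 h. Format: 96-well plates. Endpoint: linear interpolation; highest concentration if not reached. GI50: concentration for 50% inhibition of growth.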 Active and inactive are the calls of the source. Rule as the data show it: active = GI50 up to about 1.1 µM and inactive = higher.
Legend:
Test in all cases: NCI-60 cell line screen, 48 h
[1] = test system: 786-0
[2] = test system: A498
[3] = test system: A549
[4] = test system: ACHN
[5] = test system: BT-549
[6] = test system: CAKI-1
[7] = test system: CCRF-CEM
[8] = test system: COLO 205
[9] = test system: DU-145
[10] = test system: EKVX
[11] = test system: HCC 2998
[12] = test system: HCT-116
[13] = test system: HCT-15
[14] = test system: HL-60
[15] = test system: HOP-62
[16] = test system: HOP-92
[17] = test system: HT-29
[18] = test system: IGROV-1
[19] = test system: K562
[20] = test system: KM12
[21] = test system: LOX IMVI
[22] = test system: M14
[23] = test system: MCF7
[24] = test system: MDA-MB-231
[25] = test system: MDA-MB-435
[26] = test system: MDA-N
[27] = test system: MOLT-4
[28] = test system: Malme-3M
[29] = test system: NCI-H226
[30] = test system: NCI-H23
[31] = test system: NCI-H460
[32] = test system: NCI-H522
[33] = test system: NCI/ADR-RES
[34] = test system: OVCAR-3
[35] = test system: OVCAR-4
[36] = test system: OVCAR-5
[37] = test system: OVCAR-8
[38] = test system: PC-3
[39] = test system: RPMI-8226
[40] = test system: RXF 393
[41] = test system: SF-268
[42] = test system: SF-295
[43] = test system: SF-539
[44] = test system: SK-MEL-28
[45] = test system: SK-MEL-2
[46] = test system: SK-MEL-5
[47] = test system: SK-OV-3
[48] = test system: SN12C
[49] = test system: SNB-19
[50] = test system: SNB-75
[51] = test system: SR
[52] = test system: SW-620
[53] = test system: T47D
[54] = test system: TK-10
[55] = test system: U-251
[56] = test system: UACC-257
[57] = test system: UACC-62
[58] = test system: UO-31
[59] = test system: Hs-578T

CC(=O)NC(Cc1ccccc1)NC(=O)O (configuration not stated)
GI50 [1]: > 100 µM (inactive)
GI50 [2]: > 100 µM (inactive)
GI50 [3]: > 100 µM (inactive)
GI50 [4]: > 100 µM (inactive)
GI50 [5]: > 100 µM (inactive)
GI50 [6]: > 100 µM (inactive)
GI50 [7]: > 100 µM (inactive)
GI50 [8]: > 100 µM (inactive)
GI50 [9]: > 100 µM (inactive)
GI50 [10]: > 100 µM (inactive)
GI50 [11]: > 100 µM (inactive)
GI50 [12]: > 100 µM (inactive)
GI50 [13]: > 100 µM
GI50 [14]: > 100 µM (inactive)
GI50 [15]: > 100 µM (inactive)
GI50 [16]: > 100 µM (inactive)
GI50 [17]: > 100 µM (inactive)
GI50 [18]: > 100 µM (inactive)
GI50 [19]: > 100 µM (inactive)
GI50 [20]: > 100 µM (inactive)
GI50 [21]: > 100 µM (inactive)
GI50 [22]: > 100 µM (inactive)
GI50 [23]: > 100 µM (inactive)
GI50 [24]: > 100 µM (inactive)
GI50 [25]: > 100 µM (inactive)
GI50 [26]: > 100 µM (inactive)
GI50 [27]: > 100 µM (inactive)
GI50 [28]: > 100 µM (inactive)
GI50 [29]: > 100 µM (inactive)
GI50 [30]: > 100 µM (inactive)
GI50 [31]: > 100 µM (inactive)
GI50 [32]: > 100 µM (inactive)
GI50 [33]: > 100 µM (inactive)
GI50 [34]: > 100 µM (inactive)
GI50 [35]: > 100 µM (inactive)
GI50 [36]: > 100 µM (inactive)
GI50 [37]: > 100 µM (inactive)
GI50 [38]: > 100 µM (inactive)
GI50 [39]: > 100 µM (inactive)
GI50 [40]: > 100 µM (inactive)
GI50 [41]: > 100 µM (inactive)
GI50 [42]: > 100 µM (inactive)
GI50 [43]: > 100 µM (inactive)
GI50 [44]: > 100 µM (inactive)
GI50 [45]: > 100 µM (inactive)
GI50 [46]: > 100 µM (inactive)
GI50 [47]: > 100 µM (inactive)
GI50 [48]: > 100 µM (inactive)
GI50 [49]: > 100 µM (inactive)
GI50 [50]: > 100 µM (inactive)
GI50 [51]: > 100 µM (inactive)
GI50 [52]: > 100 µM (inactive)
GI50 [53]: > 100 µM (inactive)
GI50 [54]: > 100 µM (inactive)
GI50 [55]: > 100 µM (inactive)
GI50 [56]: > 100 µM (inactive)
GI50 [57]: > 100 µM (inactive)
GI50 [58]: > 100 µM (inactive)

CN(C)CCCNC(=O)c1cc(NC(=O)c2cc(NC(=O)CCCn3c4ccccc4c4ccccc43)cn2C)cn1C
GI50 [1]: 13.5 µM (inactive)
GI50 [2]: 19.3 µM (inactive)
GI50 [3]: 17.5 µM (inactive)
GI50 [4]: 27.2 µM (inactive)
GI50 [5]: 15 µM (inactive)
GI50 [6]: 19.1 µM (inactive)
GI50 [7]: 7.71 µM (inactive)
GI50 [8]: 2.15 µM (inactive)
GI50 [9]: 17.9 µM (inactive)
GI50 [10]: 15.3 µM (inactive)
GI50 [11]: 5.52 µM (inactive)
GI50 [12]: 3.27 µM (inactive)
GI50 [13]: 28.1 µM
GI50 [14]: 11.6 µM (inactive)
GI50 [15]: 13.6 µM (inactive)
GI50 [16]: 14.7 µM (inactive)
GI50 [17]: 2.59 µM (inactive)
GI50 [59]: 15.5 µM (inactive)
GI50 [18]: 26.5 µM (inactive)
GI50 [19]: 3.13 µM (inactive)
GI50 [20]: 6.28 µM (inactive)
GI50 [21]: 6.59 µM (inactive)
GI50 [22]: 4.41 µM (inactive)
GI50 [23]: 5.89 µM (inactive)
GI50 [25]: 9.29 µM (inactive)
GI50 [27]: 2.02 µM (inactive)
GI50 [28]: 6.03 µM (inactive)
GI50 [30]: 14.8 µM (inactive)
GI50 [31]: 10.1 µM (inactive)
GI50 [32]: 14.2 µM (inactive)
GI50 [33]: 19.6 µM (inactive)
GI50 [34]: 13.4 µM (inactive)
GI50 [35]: 15.5 µM (inactive)
GI50 [36]: 20.1 µM (inactive)
GI50 [37]: 22.8 µM (inactive)
GI50 [38]: 19.2 µM (inactive)
GI50 [39]: 3.08 µM (inactive)
GI50 [40]: 12.6 µM (inactive)
GI50 [41]: 13.5 µM (inactive)
GI50 [42]: 18.5 µM (inactive)
GI50 [43]: 20.4 µM (inactive)
GI50 [44]: 21.6 µM (inactive)
GI50 [45]: 24.8 µM (inactive)
GI50 [46]: 5.81 µM (inactive)
GI50 [47]: 12 µM (inactive)
GI50 [48]: 14.3 µM (inactive)
GI50 [49]: 10.5 µM (inactive)
GI50 [50]: 14.4 µM (inactive)
GI50 [52]: 7.94 µM (inactive)
GI50 [53]: 7.03 µM (inactive)
GI50 [54]: 12.4 µM (inactive)
GI50 [55]: 11.4 µM (inactive)
GI50 [56]: 15.9 µM (inactive)
GI50 [58]: 25.6 µM (inactive)

Reference: ChEMBL document CHEMBL1201862, “PubChem BioAssay data set” (2004)
